From ChEMBL document CHEMBL3826962, “Synthesis, biological evaluation and molecular docking of 2-phenyl-benzo[d]oxazole-7-carboxamide derivatives as potential Staphylococcus aureus Sortase A inhibitors” (Bioorg Med Chem Lett, 2016)

Assay: Inhibition of Staphylococcus aureus sortase A using Abz-LPETG-Dap(DNP)-NH2 as substrate preincubated for 1 hr followed by substrate addition by FRET assay

**Q.** For `CC(C)CNC(=O)c1cccc2nc(-c3ccc(COC(=O)c4ccc(O)c(O)c4O)cc3)oc12`, which IC50 is on record?
**A.** The IC50 was 19.8 µM.

**Q.** For `CC(C)CNC(=O)c1cccc2nc(-c3ccc(COC(=O)Cc4ccc(O)cc4)cc3)oc12`, which IC50 is on record?
**A.** Its IC50 is 73.2 µM.

**Q.** For `CC(C)NC(=O)c1cccc2nc(-c3ccc(COC(=O)c4ccc(O)cc4)cc3)oc12`, which IC50 is on record?
**A.** The IC50 was 46.3 µM.

**Q.** Which IC50 does the source give for `CCCCNC(=O)c1cccc2nc(-c3ccc(COC(=O)c4cccc(O)c4)cc3)oc12` here?
**A.** Its IC50 is 161 µM.

**Q.** For `CC(C)CNC(=O)c1cccc2nc(-c3ccc(CNCc4ccccc4)cc3)oc12`, which IC50 is on record?
**A.** Its IC50 is 128 µM.

**Q.** With `CC(C)CNC(=O)c1cccc2nc(-c3ccc(COC(=O)/C=C/c4ccc(O)cc4)cc3)oc12` as the molecule, how does the IC50 read?
**A.** Its IC50 is 87.4 µM.

**Q.** Which IC50 does the source give for `CCCCNC(=O)c1cccc2nc(-c3ccc(COC(=O)c4ccc(O)cc4)cc3)oc12` here?
**A.** Its IC50 is 155 µM.

**Q.** Which IC50 does the source give for `CC(C)CNC(=O)c1cccc2nc(-c3ccc(COC(=O)c4ccccc4[N+](=O)[O-])cc3)oc12` here?
**A.** The IC50 was 155 µM.

**Q.** Which IC50 does the source give for `CC(C)CNC(=O)c1cccc2nc(-c3ccc(COC(=O)Cc4ccc(O)c(O)c4)cc3)oc12` here?
**A.** The IC50 was 64.4 µM.

**Q.** For `O=C(Cc1cccc(O)c1)OCc1ccc(-c2nc3ccccc3o2)cc1`, which IC50 is on record?
**A.** Its IC50 is > 200 µM.

**Q.** For `O=C(Cc1ccc(O)c(O)c1)OCc1ccc(-c2nc3ccccc3o2)cc1`, which IC50 is on record?
**A.** The IC50 was > 200 µM.

**Q.** Which IC50 does the source give for `CCCCNC(=O)c1cccc2nc(-c3ccc(COC(=O)/C=C/c4ccc(O)cc4)cc3)oc12` here?
**A.** The IC50 was 184 µM.

**Q.** Which IC50 does the source give for `CC(C)NC(=O)c1cccc2nc(-c3ccc(COC(=O)Cc4ccc(O)cc4)cc3)oc12` here?
**A.** The IC50 was 116 µM.

**Q.** With `CC(C)CNC(=O)c1cccc2nc(-c3ccc(COC(=O)c4ccc(O)cc4O)cc3)oc12` as the molecule, how does the IC50 read?
**A.** The IC50 was 22.4 µM.

**Q.** Which IC50 does the source give for `CC(C)CNC(=O)c1cccc2nc(-c3ccc(COC(=O)Cc4cccc(O)c4)cc3)oc12` here?
**A.** Its IC50 is 81.4 µM.

**Q.** Which IC50 does the source give for `CC(C)NC(=O)c1cccc2nc(-c3ccc(COC(=O)c4cccc(O)c4)cc3)oc12` here?
**A.** The IC50 was 144 µM.

**Q.** With `COc1ccc(NCc2ccc(-c3nc4cccc(C(=O)NCC(C)C)c4o3)cc2)cc1` as the molecule, how does the IC50 read?
**A.** Its IC50 is 65.5 µM.

**Q.** Which IC50 does the source give for `COc1cc(OC)cc(C(=O)OCc2ccc(-c3nc4cccc(C(=O)NCC(C)C)c4o3)cc2)c1` here?
**A.** The IC50 was 24.8 µM.

**Q.** Which IC50 does the source give for `CC(C)CNC(=O)c1cccc2nc(-c3ccc(COC(=O)c4ccccc4)cc3)oc12` here?
**A.** The IC50 was 161 µM.

**Q.** With `CC(C)CNC(=O)c1cccc2nc(-c3ccc(COC(=O)Cc4ccc([N+](=O)[O-])c(O)c4)cc3)oc12` as the molecule, how does the IC50 read?
**A.** Its IC50 is 87.4 µM.

**Q.** With `CCCCNCc1ccc(-c2nc3cccc(C(=O)NCC(C)C)c3o2)cc1` as the molecule, how does the IC50 read?
**A.** The IC50 was 136 µM.

**Q.** With `CC(C)CNC(=O)c1cccc2nc(-c3ccc(COC(=O)c4ccc(O)c(O)c4)cc3)oc12` as the molecule, how does the IC50 read?
**A.** The IC50 was 20.6 µM.

**Q.** Which IC50 does the source give for `CCCCNC(=O)c1cccc2nc(-c3ccc(COC(=O)Cc4cccc(O)c4)cc3)oc12` here?
**A.** Its IC50 is 177 µM.

**Q.** With `O=C(OCc1ccc(-c2nc3ccccc3o2)cc1)c1ccc(O)cc1` as the molecule, how does the IC50 read?
**A.** The IC50 was > 200 µM.

**Q.** Which IC50 does the source give for `CC(C)CNC(=O)c1cccc2nc(-c3ccc(COC(=O)c4ccc([N+](=O)[O-])cc4)cc3)oc12` here?
**A.** Its IC50 is 159 µM.

**Q.** Which IC50 does the source give for `CCCCNC(=O)c1cccc2nc(-c3ccc(COC(=O)Cc4ccc(O)cc4)cc3)oc12` here?
**A.** Its IC50 is 181 µM.

**Q.** With `O=C(OCc1ccc(-c2nc3ccccc3o2)cc1)c1cccc(O)c1` as the molecule, how does the IC50 read?
**A.** Its IC50 is > 200 µM.

**Q.** With `CC(C)NC(=O)c1cccc2nc(-c3ccc(COC(=O)Cc4ccc(O)c(O)c4)cc3)oc12` as the molecule, how does the IC50 read?
**A.** Its IC50 is 74.8 µM.

**Q.** For `CC(C)CNC(=O)c1cccc2nc(-c3ccc(COC(=O)c4cccc(O)c4)cc3)oc12`, which IC50 is on record?
**A.** Its IC50 is 26.1 µM.
